Data taken from patent publication US10053447B2, “Fluorescent compounds” (Pierce Biotechnology, Inc, priority 2010, dated 2018).
Each block holds one compound with its values, some of them ahead of it.

Columns and labels:
[1] = Absorption profile and fluorescence intensity of the free dyes; format: physicochemical; conditions: dyes compared with each other (FIG. 1, 25, 52)
[2] = Storage stability at 50° C. under argon; format: physicochemical
Protocol: (§1) The inventive compounds were evaluated for stability. All compounds were packed under argon in plastic vials. The vials sere sealed with a drying pad in an aluminium coated pouch, and then stored at 50° C. for seven days. The results of the stability study for selected compounds are shown below:
Purity was determined based on ester activity.
as §1, with “stability compared to commercial dyes.” for “stability.”, “argon as 1 mg portions” for “argon”, “14” for “seven”
The inventive compound 755 Compound 1 (isomer 1)-NHS was evaluated for stability. The compound was packed under argon in plastic vials. The vials sere sealed with a drying pad in an aluminium coated pouch, and then stored at 50° C. for 14 days. Purity was determined by HPLC before and after storage.

[3] = Quantum yield (QY) measurement, Hamamatsu C9920 PL Absolute Quantum Yield Measurement System; format: physicochemical; conditions: in PBS
Protocol: The quantum yield (QY) was determined at an excitation wavelength of 500 nm and 530 nm for inventive and commercial compounds, as shown below
QY measurements were performed in PBS using a Hamamatsu C9920 PL Absolute Quantum Yield Measurement System. The maximum absorbance at a 1 cm pathlength was set to 0.08. The lower values for the excitation at 530 nm was due to the rising emission which was not included in the counting because it was too close to the excitation light.
The quantum yield (QY) was determined at an excitation wavelength of 600 nm for inventive and commercial compounds, as shown below
QY measurements were performed in PBS using a Hamamatsu C9920 PL Absolute Quantum Yield Measurement System. The maximum absorbance at a 1 cm pathlength was set to 0.08.
The quantum yield (QY) was determined at an excitation wavelength of 710 nm for inventive and commercial compounds, as shown below.
QY measurements were performed in PBS using a Hamamatsu C9920 PL Absolute Quantum Yield Measurement System. The maximum absorbance at a 1 cm path length was set to 0.08.

[4] = Spectral properties of the dyes compared with commercially available dyes; format: physicochemical; conditions: reactive ester form of the dye
[5] = system: mouse IgG, rabbit IgG, biotinylated bovine serum albumin (BBSA); assay: Functional assay, summary over GAM, GAR and SA conjugates; format: binding; conditions: compared with DyLight 549 or DyLight 649 conjugates
Protocol: Performance of the dye-GAM conjugates, dye-GAR conjugates, and dye-SA conjugates was evaluated in a functional assay. Wells of a 96 white opaque plate were coated with target proteins mouse IgG immunoglobulin, rabbit IgG immunoglobulin, or biotinylated bovine serum albumin (BBSA). One hundred μl mouse or rabbit IgG or BBSA at a concentration of 10 μg/ml was applied to the corresponding wells in columns 1 and 2. The target proteins were serially diluted 1:1 from the wells in columns 2 to 11 using 100 μl PBS. One hundred 100 μl of the samples from the wells in column 11 were discarded. One hundred μl PBS was added to the wells in column 12. The plates were incubated overnight at 4° C. and then blocked 2×200 μl with Thermo Scientific SuperBlock® Blocking Buffer. The coated plates were washed 2×200 μl with PBS-Tween and 1×200 μl with PBS. Conjugates diluted in PBS to 4 μg/ml were added to the corresponding plates (100 μl/well) and then incubated for 1 h in the dark. The plates were washed with 2×200 μl with PBS-Tween and 1×200 μl with PBS and filled with PBS buffer (100 μl/well) prior to scanning on Tecan Safire using 562 nmexcitation/576 nmemission to detect fluorescence intensity.
Performance of the dye-GAM conjugates and dye-GAR conjugates was evaluated in a functional assay. Wells of a 96 well white opaque plate were coated with mouse IgG, or rabbit IgG. One hundred μl mouse or rabbit IgG at a concentration of 10 μg/ml was applied to the corresponding wells in columns 1 and 2. The IgG proteins were serially diluted 1:1 from the wells in columns 2 to 11 using 100 μl PBS. One hundred 100 μl of the samples from the wells in column 11 were discarded. One hundred μl PBS was added to the wells in column 12. […] The plates were washed with 2×200 μl with PBS-Tween and 1×200 μl with PBS and filled with PBS buffer (100 μl/well) prior to scanning on Tecan Safire using the Alexa 647 setting (650 nmexcitation/665 nmemission) and the DyLight 649 setting (654 nmexcitation/673 nmemission to detect fluorescence intensity

[6] = system: U2OS cells; A550 cells; assay: Immunofluorescence cell based assays, summary statements; design: species or system human; conditions: GAM and GAR conjugates
Protocol: The inventive compounds and commercial dye were evaluated for immunofluorescence in cell based assays using the following protocol. Plates containing U2OS cells (human osteosarcoma cell line) were fixed in 4% paraformaldehyde in PBS/0.1% Triton X-100 for 15 min at room temperature. The cells were then permeabilized with 2% BSA in PBS/0.1% Triton X-100 for 30 min at room temperature. Diluted primary antibodies in PBS/0.1% Triton X-100 were added to the plates and incubated overnight at 4° C. The plates were washed 3×100 μl with PBS. Based on the calculated protein concentrations, the conjugates were diluted to 4 μg/ml (1:250 from 1 mg/ml stock) in PBS/0.1% Triton X-100 and added to the plates (50 μl/well) and incubated 1 h in the dark at room temperature. The plates were washed 3×100 μl with PBS. One hundred μl of 2 μg/ml Hoechst dye in PBS was added per well. The plates were then scanned on an ArrayScan® Plate Reader for imaging and quantitation.
The inventive compounds and commercial dyes were evaluated for immunofluorescence in cell based assays using the following protocol. Plates containing A550 cells (adenocarcinoma human alveolar basal epithelial cells, P5, Sep. 23, 2010) and stored at −80° C. were placed at 50° C. for 30 min. The storage buffer (PBS) was removed and then the cells were permeabilized for 15 min (100 μl/well) with 0.1% Triton-X100 in 1×PBS buffer. The plates were blocked for 30 min in 2% BSA in 1×PBS-0.1% Triton-X100 and then incubated with primary antibodies diluted in 2% BSA in 1×PBS, 0.1% Trion-X100, overnight at 4° C. […] The remaining wells were incubated in blocking buffer only (no primary antibody). After overnight incubation, the antibody solution was removed from the wells, and the plates were washed with PBS-Tween (2×100 μl/well). The labeled secondary antibody conjugates, diluted to 4 μg/ml in PBS were added to corresponding wells and incubated for 1 h at room temperature (about 20° C. to about 22° C.). The plates were washed 3×100 μl/well with PBS and Hoechst stain diluted 1 μg/ml in PBS were added to each well (100 μl/well) of each plate. The plates were then scanned on the Thermo Scientific ArrayScan® HCS Reader for imaging and quantitation.

[7] = unit size 15 μg, 50° C. for seven days, purity based on ester activity, listed as 550 Compound 1(isomer 1)-NHS
[8] = unit size 50 μg, 50° C. for seven days, purity based on ester activity, listed as 550 Compound 1(isomer 1)-NHS
[9] = unit size 1 mg, 50° C. for seven days, purity based on ester activity
[10] = listed as 550 Compound 1(isomer 1)-NHS
[11] = unit size 15 μg, 50° C. for 14 days, purity by HPLC
[12] = unit size 50 μg, 50° C. for 14 days, purity by HPLC
[13] = unit size 60 μg, 50° C. for 14 days, purity by HPLC
[14] = unit size 1 mg, 50° C. for 14 days, purity by HPLC
[15] = unit size 15 μg, 50° C. for seven days, purity based on ester activity, listed as 550 Compound 1(isomer 2)-NHS
[16] = unit size 50 μg, 50° C. for seven days, purity based on ester activity, listed as 550 Compound 1(isomer 2)-NHS

SMILES: COCC[N+]1=C(/C=C/C=C/C=C2/N(CCCCCC(=O)O)c3ccc(S(=O)(=O)O)cc3C2(C)CCCS(=O)(=O)O)C(C)(CCCS(=O)(=O)O)c2cc(S(=O)(=O)O)ccc21.[Na+].[Na+].[Na+] (stereo not shown) [650 Compound 1, 2-{(1E,3E)-5-[1-(5-Carboxypentyl)-3-methyl-5-sulfo-3-(3-sulfopropyl)-1,3-dihydro-indol-(2E)-ylidene]-penta-1,3-dienyl}-1-(2-methoxy-ethyl)-3-methyl-5-sulfo-3-(3-sulfopropyl)-3H-indolium tri sodium salt]
Performance of conjugates (GAM, GAR, SA) in the functional assay in terms of signal-to-noise [5]: superior to DyLight 649 conjugates | Immunofluorescence performance of conjugates compared with commercial DyLight dye ([6]; tri sodium salt): at least similar performance to DyLight 649 conjugates (GAM, GAR), and in some cases superior performance

SMILES: COCCOCCOCC[N+]1=C(/C=C/C=C/C=C2/N(CCCCCC(=O)O)c3ccc(S(=O)(=O)O)cc3C2(C)CCCS(=O)(=O)O)C(C)(CCCS(=O)(=O)O)c2cc(S(=O)(=O)O)ccc21.[Na+].[Na+].[Na+] (stereo not shown) [650 Compound 3, 2-{(1E,3E)-5-[1-(5-carboxypentyl)-3-methyl-5-sulfo-3-(3-sulfopropyl)-1,3-dihydro-indol-(2E)-ylidene]-penta-1,3-dienyl}-1-{2-[2-(2-methoxy-ethoxy)-ethoxy]-ethyl}-3-methyl-5-sulfo-3-(3-sulfopropyl)-3H-indolium tri sodium salt]
Performance of conjugates (GAM, GAR, SA) in the functional assay in terms of signal-to-noise [5]: superior to DyLight 649 conjugates | Immunofluorescence performance of conjugates compared with commercial DyLight dye [6]: at least similar performance to DyLight 649 conjugates (GAM, GAR), and in some cases superior performance

SMILES: COCCOCC[N+]1=C(/C=C/C=C/C=C2/N(CCCCCC(=O)O)c3ccc(S(=O)(=O)O)cc3C2(C)CCCS(=O)(=O)O)C(C)(CCCS(=O)(=O)O)c2cc(S(=O)(=O)O)ccc21.[Na+].[Na+].[Na+] (stereo not shown) [650 Compound 2, 2-{(1E,3E)-5-[1-(5-carboxypentyl)-3-methyl-5-sulfo-3-(3-sulfopropyl)-1,3-dihydroindol-(2E)-ylidene]-penta-1,3-dienyl}-1-[2-(2-methoxy-ethoxy)-ethyl]-3-methyl-5-sulfo-3-(3-sulfopropyl)-3H-indolium tri sodium salt]
Performance of conjugates (GAM, GAR, SA) in the functional assay in terms of signal-to-noise [5]: superior to DyLight 649 conjugates | Immunofluorescence performance of conjugates compared with commercial DyLight dye [6]: at least similar performance to DyLight 649 conjugates (GAM, GAR), and in some cases superior performance

Further lines, results first:

Absorption profile [1]: very similar profiles | Purity at day 1 [2, 7]: 95% | Purity at day 7 [2, 7]: 91% | Purity at day 1 [2, 8]: 95% | Purity at day 7 [2, 8]: 91% | Purity at day 1 [2, 9]: 96% | Purity at day 7 [2, 9]: 93% | QY excitation at 500 nm [3, 10]: 0.105 | QY excitation at 530 nm [3, 10]: 0.098
SMILES: COCCN1/C(=C/C=C/C2=[N+](CCCCCC(=O)ON3C(=O)CCC3=O)c3ccc(S(=O)(=O)[O-])cc3C2(C)CCCS(=O)(=O)O)C(C)(CCCS(=O)(=O)O)c2cc(S(=O)(=O)O)ccc21 (single isomer, unassigned) [550 Compound 1 (isomer 1)-NHS]

Absorption profile [1]: very similar profiles | Purity at day 1 [2, 11]: 99% | Purity at day 14 [2, 11]: 96% | Purity at day 1 [2, 12]: 99% | Purity at day 14 [2, 12]: 97% | Purity at day 1 [2, 13]: 99% | Purity at day 14 [2, 13]: 97% | Purity at day 1 [2, 14]: 99% | Purity at day 14 [2, 14]: 98% | QY with excitation at 710 nm [3]: 0.119 | Emission (Em) [4]: 776 nm | Excitation (Ex) [4]: 754 nm | ε [4]: 220,000 M−1cm−1
SMILES: COCCN1/C(=C/C=C/C=C/C=C/C2=[N+](CCCCCC(=O)ON3C(=O)CCC3=O)c3ccc(S(=O)(=O)[O-])cc3C2(C)CCCS(=O)(=O)O)C(C)(CCCS(=O)(=O)O)c2cc(S(=O)(=O)O)ccc21 (single isomer, unassigned) [755 Compound 1 (isomer 1)-NHS]

Absorption profile [1]: very similar profiles | QY with excitation at 710 nm [3]: 0.110 | Emission (Em) [4]: 776 nm | Excitation (Ex) [4]: 754 nm | ε [4]: 220,000 M−1cm−1
SMILES: COCCN1/C(=C/C=C/C=C/C=C/C2=[N+](CCCCCC(=O)ON3C(=O)CCC3=O)c3ccc(S(=O)(=O)[O-])cc3C2(C)CCCS(=O)(=O)O)C(C)(CCCS(=O)(=O)O)c2cc(S(=O)(=O)O)ccc21 (single isomer, unassigned) [755 Compound 1 (isomer 2)-NHS]

Absorption profile [1]: very similar profiles | Purity at day 1 [2, 15]: 96% | Purity at day 7 [2, 15]: 94% | Purity at day 1 [2, 16]: 96% | Purity at day 7 [2, 16]: 95% | QY excitation at 500 nm [3]: 0.096 | QY excitation at 530 nm [3]: 0.090
SMILES: COCCN1/C(=C/C=C/C2=[N+](CCCCCC(=O)ON3C(=O)CCC3=O)c3ccc(S(=O)(=O)[O-])cc3C2(C)CCCS(=O)(=O)O)C(C)(CCCS(=O)(=O)O)c2cc(S(=O)(=O)O)ccc21 (single isomer, unassigned) [550 Compound 1 (isomer 2)-NHS]
